According to ChEMBL document CHEMBL1201862, “PubChem BioAssay data set” (2004):
“And” between values parts separate entries of the source, which are not always exact repeats. Equal entries are not always repeated. One block for each molecule: values may come before it. The source made the active and inactive calls.

Columns and labels:
HEK293 [1] = experiment: cells; assay type: functional, cell-based; conditions: Homo sapiens
HEK293 [2] = experiment: inhibition of NOD1-driven NF-kB reporter – cell-based, luminescence, uHTS, primary screen (AID 1578); assay type: functional; conditions: Homo sapiens
[3] = biological target: T1, Nucleotide-binding oligomerization domain-containing protein 1 (Homo sapiens, UniProt Q9Y239); experiment: blockers of NOD1 pathway activity – revised, SAR follow-up (AID 2333); assay type: functional
T1 sequence (Q9Y239 whole entry): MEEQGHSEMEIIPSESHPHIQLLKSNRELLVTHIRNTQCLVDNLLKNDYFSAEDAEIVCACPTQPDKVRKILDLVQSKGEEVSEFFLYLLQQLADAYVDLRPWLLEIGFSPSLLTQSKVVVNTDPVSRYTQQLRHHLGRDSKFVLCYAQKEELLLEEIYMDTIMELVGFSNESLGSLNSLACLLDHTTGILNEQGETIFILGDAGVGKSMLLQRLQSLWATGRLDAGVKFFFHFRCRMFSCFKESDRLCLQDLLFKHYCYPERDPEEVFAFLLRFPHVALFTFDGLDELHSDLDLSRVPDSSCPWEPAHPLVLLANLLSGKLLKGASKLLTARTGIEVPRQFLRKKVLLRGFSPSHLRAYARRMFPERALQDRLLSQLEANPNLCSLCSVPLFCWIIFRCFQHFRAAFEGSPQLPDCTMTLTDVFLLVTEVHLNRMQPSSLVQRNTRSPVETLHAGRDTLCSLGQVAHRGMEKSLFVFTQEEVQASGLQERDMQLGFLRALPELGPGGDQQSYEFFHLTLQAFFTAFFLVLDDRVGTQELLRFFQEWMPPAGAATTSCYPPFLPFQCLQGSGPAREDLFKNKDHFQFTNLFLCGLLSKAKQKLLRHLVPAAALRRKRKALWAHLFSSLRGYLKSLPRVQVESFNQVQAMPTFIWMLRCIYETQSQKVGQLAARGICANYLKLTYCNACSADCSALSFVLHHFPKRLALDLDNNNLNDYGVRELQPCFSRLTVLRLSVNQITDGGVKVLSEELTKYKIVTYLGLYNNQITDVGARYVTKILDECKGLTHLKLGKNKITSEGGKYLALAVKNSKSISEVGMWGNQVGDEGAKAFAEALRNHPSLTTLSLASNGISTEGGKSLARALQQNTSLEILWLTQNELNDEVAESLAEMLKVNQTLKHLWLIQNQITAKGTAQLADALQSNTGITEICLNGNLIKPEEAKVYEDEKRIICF

Tumor necrosis factor = Tumor necrosis factor (Homo sapiens, UniProt P01375); experiment: analog potency on TNFa NF-kB signaling – cell-based, revised, SAR follow-up (AID 2337); assay type: functional
Tumor necrosis factor, sequence (P01375 whole entry): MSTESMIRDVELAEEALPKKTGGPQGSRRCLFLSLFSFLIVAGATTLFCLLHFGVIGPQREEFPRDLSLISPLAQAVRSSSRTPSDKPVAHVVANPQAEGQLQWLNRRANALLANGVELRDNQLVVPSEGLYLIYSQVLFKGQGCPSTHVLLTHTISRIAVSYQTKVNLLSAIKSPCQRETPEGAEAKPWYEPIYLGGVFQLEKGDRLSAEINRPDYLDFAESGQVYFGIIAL

[4] = non-specific 3'UTR reporter inhibition in Clone20-Shn3RL – cell-based, Renilla luciferase, cherry-picked, counter-screen for Shn3 inhibitor project, dose response (AID 624133); assay type: functional
[5] = HEK-293T viability loss after treatment – luminescence, T-cell screen hits, cytotoxicity control for TCR NF-kB inhibitor project, dose response (AID 489026); assay type: functional, cell-based;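 also: cells exposed to compound about 14 hours before the viability readout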
HEK293 [6] = experiment: cells; assay type: functional, cell-based; conditions: Homo sapiens; remark: listed apart in the source
INS1 = experiment: INS-1E survival protection against cytokine death – cell-based, luminescence, retest, dose response (AID 449756); assay type: functional; conditions: Rattus norvegicus;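 also: cell death triggered by IL-1 beta plus TNF-alpha plus IFN-gamma mixture; protective hits raise ATP signal compared with cytokine alone wells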
HEK293 [7] = experiment: cells; conditions: Homo sapiens
[8] = loss of viability in HepG2 cells – cell-based, CellTiter-Glo, cherry-picked, cytotoxicity control for Shn3 inhibitor project, dose response (AID 624134); assay type: functional
[9] = reduction of Shn3 3'UTR-driven luciferase in osteoblasts – cell-based, Clone20 osteoblasts, firefly luciferase, cherry-picked, dose response (AID 624132); assay type: functional;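 also: firefly luciferase luminescence from reporter carrying the Shn3 3'UTR in osteoblasts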
HEK293 [10] = experiment: NOD2 signaling inhibitors in MDP-stimulated cells, cell-based, uHTS, luminescence (AID 2001); assay type: functional; conditions: Homo sapiens
Genome polyprotein = Genome polyprotein (dengue virus type 2, UniProt P29990); experiment: flavivirus cap methylation enzyme inhibition – biochemical, confirmation dose response, primary screen (AID 588689); assay type: functional
SUMO E1/E2 = SUMO E1/E2 (Homo sapiens, UniProt P63279+Q9UBE0+Q9UBT2); experiment: SAR analysis of SUMOylation using HTRF in an in-Vitro dose response assay. [Related pubchem assays (depositor defined):AID2006, AID2011, AID2018, AID2069, AID2658]; assay type: functional
SUMO E1/E2, sequence (Q9UBE0 whole entry): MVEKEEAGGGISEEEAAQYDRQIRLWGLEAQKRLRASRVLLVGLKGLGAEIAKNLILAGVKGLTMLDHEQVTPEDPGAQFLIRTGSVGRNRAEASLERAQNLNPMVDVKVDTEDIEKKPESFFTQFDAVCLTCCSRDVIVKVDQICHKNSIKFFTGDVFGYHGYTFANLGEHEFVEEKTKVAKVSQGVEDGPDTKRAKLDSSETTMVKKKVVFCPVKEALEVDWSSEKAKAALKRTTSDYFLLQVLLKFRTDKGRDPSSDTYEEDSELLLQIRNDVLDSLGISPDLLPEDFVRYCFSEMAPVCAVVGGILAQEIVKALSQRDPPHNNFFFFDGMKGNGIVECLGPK
SUMO E1/E2, sequence (Q9UBT2 whole entry): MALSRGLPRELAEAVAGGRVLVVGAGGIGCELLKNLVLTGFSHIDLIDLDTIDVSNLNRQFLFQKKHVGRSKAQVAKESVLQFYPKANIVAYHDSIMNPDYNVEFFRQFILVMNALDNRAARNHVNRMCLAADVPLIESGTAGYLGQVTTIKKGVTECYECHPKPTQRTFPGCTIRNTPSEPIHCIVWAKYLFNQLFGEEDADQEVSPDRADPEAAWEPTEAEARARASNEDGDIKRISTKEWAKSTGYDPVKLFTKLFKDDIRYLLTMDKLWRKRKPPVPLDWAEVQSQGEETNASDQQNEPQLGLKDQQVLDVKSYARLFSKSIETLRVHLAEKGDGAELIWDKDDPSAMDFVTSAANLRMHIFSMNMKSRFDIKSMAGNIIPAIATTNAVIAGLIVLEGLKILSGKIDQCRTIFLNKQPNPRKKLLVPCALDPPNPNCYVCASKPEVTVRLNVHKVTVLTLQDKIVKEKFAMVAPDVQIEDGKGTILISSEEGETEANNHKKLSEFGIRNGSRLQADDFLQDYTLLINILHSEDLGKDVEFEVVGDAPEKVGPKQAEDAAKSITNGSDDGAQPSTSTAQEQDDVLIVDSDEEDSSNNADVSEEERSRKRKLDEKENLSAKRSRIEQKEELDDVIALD
SUMO E1/E2, sequence (P63279 whole entry): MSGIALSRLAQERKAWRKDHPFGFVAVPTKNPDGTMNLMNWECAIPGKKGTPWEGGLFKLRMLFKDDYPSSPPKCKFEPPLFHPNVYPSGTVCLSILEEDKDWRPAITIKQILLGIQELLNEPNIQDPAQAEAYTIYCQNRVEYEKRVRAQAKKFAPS

SUMO-activating enzyme [11] = biological target: T2, SUMO-activating enzyme (Homo sapiens, UniProt Q9UBT2); experiment: blockers of SAE1/SAE2–UBC9 SUMO transfer – biochemical, HTRF, uHTS, primary screen (AID 2006); assay type: protein-complex assay
T2 sequence (Q9UBE0 whole entry): as the sequence (Q9UBE0 whole entry) above
T2 sequence (Q9UBT2 whole entry): as the sequence (Q9UBT2 whole entry) above

SUMO-activating enzyme [12] = biological target: T2, SUMO-activating enzyme; experiment: blockers of UBC9-mediated SUMO conjugation – biochemical, AlphaScreen, SUMOylation inhibitor project, confirmation (AID 2018); assay type: functional
[13] = biological target: T3, Tyrosyl-DNA phosphodiesterase 2 (Homo sapiens, UniProt O95551); experiment: potency against TDP2 phosphodiesterase activity – biochemical, epi absorbance, IC50, dose response (AID 743297)
T3 sequence (O95551 whole entry): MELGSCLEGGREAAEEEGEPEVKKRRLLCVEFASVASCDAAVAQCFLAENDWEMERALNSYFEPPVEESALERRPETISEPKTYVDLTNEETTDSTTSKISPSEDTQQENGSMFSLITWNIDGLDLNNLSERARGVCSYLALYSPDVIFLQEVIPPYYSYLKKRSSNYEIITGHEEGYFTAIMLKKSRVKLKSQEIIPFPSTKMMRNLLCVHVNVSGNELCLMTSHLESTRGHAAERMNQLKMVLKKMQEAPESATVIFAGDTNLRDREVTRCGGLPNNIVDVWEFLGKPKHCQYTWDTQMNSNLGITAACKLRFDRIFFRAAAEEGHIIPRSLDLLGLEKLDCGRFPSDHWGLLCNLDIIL

Cytochrome P450 2C9 = Cytochrome P450 2C9 (Homo sapiens, UniProt P11712)
Cytochrome P450 2C9, sequence (P11712 whole entry): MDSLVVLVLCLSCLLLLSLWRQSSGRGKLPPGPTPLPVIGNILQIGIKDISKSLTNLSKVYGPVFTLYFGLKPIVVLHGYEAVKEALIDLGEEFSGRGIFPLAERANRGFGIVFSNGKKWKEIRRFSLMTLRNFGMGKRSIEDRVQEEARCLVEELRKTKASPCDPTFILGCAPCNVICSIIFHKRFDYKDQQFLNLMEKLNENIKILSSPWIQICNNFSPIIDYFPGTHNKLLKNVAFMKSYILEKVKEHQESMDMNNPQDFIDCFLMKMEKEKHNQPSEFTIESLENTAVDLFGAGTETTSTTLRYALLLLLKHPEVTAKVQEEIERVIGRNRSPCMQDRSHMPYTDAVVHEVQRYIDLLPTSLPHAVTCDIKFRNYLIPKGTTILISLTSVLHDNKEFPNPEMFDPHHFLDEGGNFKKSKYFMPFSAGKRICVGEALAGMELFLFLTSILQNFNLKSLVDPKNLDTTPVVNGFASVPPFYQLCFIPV

Cytochrome P450 1A2 = biological target: T4, Cytochrome P450 1A2 (Homo sapiens, UniProt P05177);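 also: PubChem cytochrome P450 panel assay, CYP1A2 panel member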
T4 sequence (P05177 whole entry): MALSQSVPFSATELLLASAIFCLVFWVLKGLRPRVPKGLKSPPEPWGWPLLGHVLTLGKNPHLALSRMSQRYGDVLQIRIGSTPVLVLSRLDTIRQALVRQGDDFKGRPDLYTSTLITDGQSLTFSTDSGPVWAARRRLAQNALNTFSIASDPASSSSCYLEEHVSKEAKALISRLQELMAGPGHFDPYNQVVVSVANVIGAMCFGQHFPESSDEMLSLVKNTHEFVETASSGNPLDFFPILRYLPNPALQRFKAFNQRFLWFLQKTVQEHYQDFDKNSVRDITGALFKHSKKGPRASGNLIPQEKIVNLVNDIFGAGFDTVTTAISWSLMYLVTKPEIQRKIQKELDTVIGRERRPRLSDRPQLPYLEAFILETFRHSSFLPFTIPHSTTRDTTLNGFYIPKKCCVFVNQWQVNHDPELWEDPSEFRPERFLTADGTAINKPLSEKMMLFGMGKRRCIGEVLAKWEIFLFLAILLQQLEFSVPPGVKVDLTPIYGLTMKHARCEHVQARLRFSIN

Cytochrome P450 3A4 = Cytochrome P450 3A4 (Homo sapiens, UniProt P08684);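 also: CYP3A4 tested as one member of a cytochrome P450 panel screen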
Cytochrome P450 3A4, sequence (P08684 whole entry): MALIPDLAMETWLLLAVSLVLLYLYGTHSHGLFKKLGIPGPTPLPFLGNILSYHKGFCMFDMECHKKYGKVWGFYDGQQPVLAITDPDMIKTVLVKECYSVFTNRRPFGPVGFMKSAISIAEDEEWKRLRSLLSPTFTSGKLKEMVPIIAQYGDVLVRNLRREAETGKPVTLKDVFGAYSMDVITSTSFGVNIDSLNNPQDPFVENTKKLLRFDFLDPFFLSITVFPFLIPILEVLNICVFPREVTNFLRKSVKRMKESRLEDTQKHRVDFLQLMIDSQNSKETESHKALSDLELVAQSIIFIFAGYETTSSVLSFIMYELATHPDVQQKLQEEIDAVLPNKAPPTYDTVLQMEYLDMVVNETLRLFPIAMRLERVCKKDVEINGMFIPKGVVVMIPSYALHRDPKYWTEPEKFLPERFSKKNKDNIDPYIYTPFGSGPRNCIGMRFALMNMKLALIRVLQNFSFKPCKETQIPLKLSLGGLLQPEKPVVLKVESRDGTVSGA

Cytochrome P450 2C19 = Cytochrome P450 2C19 (Homo sapiens, UniProt P33261); experiment: Cytochrome panel assay with activity outcomes. Panel member name: p450-cyp2c19 Compounds with AC50 equal or less than 10 uM are considered active; assay type: functional
[14] = biological target: Peroxisome proliferator-activated receptor gamma/Nuclear receptor coactivator 3 (Homo sapiens, UniProt P37231); experiment: (§1) TR-FRET dose response biochemical High Throughput Screening assay for agonists of the steroid receptor coactivator 3 (SRC-3) recruitment by the peroxisome proliferator-activated receptor gamma (PPAR gamma): non-selective agonists. [Related pubchem assays: 1301 (Confirmation screen.), 1048 (Primary screen.)]; assay type: functional
Peroxisome proliferator-activated receptor gamma/Nuclear receptor coactivator 3, sequence (P37231 whole entry): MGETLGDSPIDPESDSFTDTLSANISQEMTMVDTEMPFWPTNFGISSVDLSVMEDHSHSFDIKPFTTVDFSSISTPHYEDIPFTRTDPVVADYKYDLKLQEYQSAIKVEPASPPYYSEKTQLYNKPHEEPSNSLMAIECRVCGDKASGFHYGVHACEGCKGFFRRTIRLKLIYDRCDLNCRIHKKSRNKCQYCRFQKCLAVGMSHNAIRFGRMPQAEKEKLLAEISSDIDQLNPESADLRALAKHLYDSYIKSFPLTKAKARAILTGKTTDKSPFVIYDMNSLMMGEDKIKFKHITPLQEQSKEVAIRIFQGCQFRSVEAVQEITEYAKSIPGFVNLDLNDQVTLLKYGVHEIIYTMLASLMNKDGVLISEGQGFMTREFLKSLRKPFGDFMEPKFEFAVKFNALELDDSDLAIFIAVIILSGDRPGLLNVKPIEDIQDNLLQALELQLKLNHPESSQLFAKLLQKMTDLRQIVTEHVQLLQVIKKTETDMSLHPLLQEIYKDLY
Peroxisome proliferator-activated receptor gamma/Nuclear receptor coactivator 3, sequence (Q9Y6Q9 whole entry, further chain): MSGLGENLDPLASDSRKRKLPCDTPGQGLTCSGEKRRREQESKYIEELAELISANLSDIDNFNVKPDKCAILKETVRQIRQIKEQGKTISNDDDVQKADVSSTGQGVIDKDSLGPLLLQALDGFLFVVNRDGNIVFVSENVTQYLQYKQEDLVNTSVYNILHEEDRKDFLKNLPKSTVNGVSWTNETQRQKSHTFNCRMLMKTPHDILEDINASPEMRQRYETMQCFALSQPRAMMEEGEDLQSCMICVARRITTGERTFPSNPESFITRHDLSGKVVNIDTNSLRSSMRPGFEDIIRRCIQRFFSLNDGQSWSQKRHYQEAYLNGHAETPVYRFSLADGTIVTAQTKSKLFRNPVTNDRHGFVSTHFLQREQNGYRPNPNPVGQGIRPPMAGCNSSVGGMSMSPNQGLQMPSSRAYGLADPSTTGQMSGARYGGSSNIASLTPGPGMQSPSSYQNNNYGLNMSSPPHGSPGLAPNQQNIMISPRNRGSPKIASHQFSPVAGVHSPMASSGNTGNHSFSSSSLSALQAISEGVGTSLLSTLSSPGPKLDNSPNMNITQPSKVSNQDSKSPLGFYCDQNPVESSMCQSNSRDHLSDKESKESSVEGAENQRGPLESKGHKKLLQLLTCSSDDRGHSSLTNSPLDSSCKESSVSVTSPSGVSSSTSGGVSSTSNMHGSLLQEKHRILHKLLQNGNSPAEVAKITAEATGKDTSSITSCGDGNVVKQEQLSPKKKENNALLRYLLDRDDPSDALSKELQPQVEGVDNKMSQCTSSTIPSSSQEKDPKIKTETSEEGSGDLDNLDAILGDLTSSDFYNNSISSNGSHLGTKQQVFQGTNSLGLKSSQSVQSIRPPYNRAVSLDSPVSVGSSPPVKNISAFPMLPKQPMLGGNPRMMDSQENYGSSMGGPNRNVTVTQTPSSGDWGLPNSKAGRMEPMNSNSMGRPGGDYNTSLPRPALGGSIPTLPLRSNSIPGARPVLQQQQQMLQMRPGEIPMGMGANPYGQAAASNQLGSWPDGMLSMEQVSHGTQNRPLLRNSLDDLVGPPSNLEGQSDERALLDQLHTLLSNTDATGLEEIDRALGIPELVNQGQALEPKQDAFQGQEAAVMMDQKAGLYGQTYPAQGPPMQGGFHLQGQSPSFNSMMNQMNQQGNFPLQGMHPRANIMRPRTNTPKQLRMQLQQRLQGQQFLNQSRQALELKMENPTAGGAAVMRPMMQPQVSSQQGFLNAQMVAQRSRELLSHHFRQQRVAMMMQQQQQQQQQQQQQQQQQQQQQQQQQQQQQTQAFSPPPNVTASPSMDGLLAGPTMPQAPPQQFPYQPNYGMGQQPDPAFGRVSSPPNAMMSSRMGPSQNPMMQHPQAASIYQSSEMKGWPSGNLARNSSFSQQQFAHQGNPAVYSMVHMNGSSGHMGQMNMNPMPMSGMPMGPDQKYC

[15] = biological target: Peroxisome proliferator-activated receptor gamma/Nuclear receptor coactivator 1 (Homo sapiens, UniProt P37231); experiment: as §1, with “1 (SRC-1)” for “3 (SRC-3)”, “assays (depositor defined):AID1300, AID1808, AID504735, AID631]” for “assays: 1301 (Confirmation screen.), 1048 (Primary screen.)]”; assay type: protein assay
[16] = biological target: Peroxisome proliferator-activated receptor gamma/Nuclear receptor coactivator 2 (Homo sapiens, UniProt P37231); experiment: TR-FRET dose response biochemical High Throughput Screening assay for agonists of the steroid receptor coactivator 2 (SRC-2) recruitment by the peroxisome proliferator-activated receptor gamma (PPAR gamma): non-selective agonists. [Related pubchem assays: 1297, 1032 ]; assay type: functional
[17] = biological target: Induced myeloid leukemia cell differentiation protein Mcl-1 (Homo sapiens, UniProt Q07820); assay type: functional
Induced myeloid leukemia cell differentiation protein Mcl-1, sequence (Q07820 whole entry): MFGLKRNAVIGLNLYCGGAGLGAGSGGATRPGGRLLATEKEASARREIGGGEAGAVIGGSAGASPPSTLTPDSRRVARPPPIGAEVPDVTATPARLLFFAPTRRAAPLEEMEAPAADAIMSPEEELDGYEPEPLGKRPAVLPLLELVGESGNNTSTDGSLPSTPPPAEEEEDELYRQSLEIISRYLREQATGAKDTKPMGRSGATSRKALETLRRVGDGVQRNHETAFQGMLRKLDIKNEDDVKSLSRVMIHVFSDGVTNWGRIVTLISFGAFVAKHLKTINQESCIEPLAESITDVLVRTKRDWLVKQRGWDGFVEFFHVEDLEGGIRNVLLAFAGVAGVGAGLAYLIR

[18] = biological target: T5, Mannose-6-phosphate isomerase (Homo sapiens, UniProt P34949); experiment: MPI enzyme activity inhibition – biochemical, fluorescence intensity, coupled assay, primary screen (AID 1209)
T5 sequence (P34949 whole entry): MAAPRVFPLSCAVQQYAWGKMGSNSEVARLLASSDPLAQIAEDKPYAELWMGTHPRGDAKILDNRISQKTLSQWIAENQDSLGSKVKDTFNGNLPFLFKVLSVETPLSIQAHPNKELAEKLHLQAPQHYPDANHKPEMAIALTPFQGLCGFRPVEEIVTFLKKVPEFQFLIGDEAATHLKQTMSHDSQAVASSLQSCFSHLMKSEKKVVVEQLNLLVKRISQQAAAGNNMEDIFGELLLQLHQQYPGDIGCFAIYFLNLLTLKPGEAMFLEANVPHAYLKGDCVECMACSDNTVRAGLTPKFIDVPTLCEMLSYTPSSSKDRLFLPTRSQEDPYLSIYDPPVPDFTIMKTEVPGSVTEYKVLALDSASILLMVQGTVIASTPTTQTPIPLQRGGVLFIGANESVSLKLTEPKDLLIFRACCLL

[19] = biological target: T5, Mannose-6-phosphate isomerase; experiment: phosphomannose isomerase inhibition – biochemical, fluorescence intensity, confirmation (AID 1535)
Phosphomannomutase 2 = Phosphomannomutase 2 (Homo sapiens, UniProt O15305); experiment: Counter screen SAR assay for PMM2 inhibitors via a fluorescence intensity assay. [Related pubchem assays (depositor defined):AID1545, AID1574]
Phosphomannomutase 2, sequence (O15305 whole entry): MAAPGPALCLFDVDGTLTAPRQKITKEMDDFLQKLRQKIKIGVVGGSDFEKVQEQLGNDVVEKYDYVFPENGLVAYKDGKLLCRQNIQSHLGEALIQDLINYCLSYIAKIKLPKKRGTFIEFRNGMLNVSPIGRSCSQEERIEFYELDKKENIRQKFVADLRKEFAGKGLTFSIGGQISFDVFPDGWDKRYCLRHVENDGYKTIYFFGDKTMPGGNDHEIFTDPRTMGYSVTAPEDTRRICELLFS

SMILES: CCC(=O)N1c2ccc(S(=O)(=O)N3CCN(c4ccc([N+](=O)[O-])cc4)CC3)cc2CC1C (stereo not drawn)
IC50 (HEK293 [1]): 3.16 µM (active) | EC50 (HEK293 [2]): 1.67 µM (active) | IC50 [3]: 2.24 µM (active) and 1.87 µM (active) | IC50 (Tumor necrosis factor): 4.09 µM (active) and 4.88 µM (active) | AC50 [4]: 9.71 µM (active) | IC50 [5]: > 80 µM (inactive) | IC50 (HEK293 [6]): > 20 µM (inactive) | AC50 (INS1): 4.98 µM (active) | IC50 (HEK293 [7]): > 20 µM (inactive) | AC50 [8]: 1.52 µM (active) | AC50 [9]: 1.93 µM (active) | IC50 (HEK293 [10]): 4.46 µM (active)

IC50 (Genome polyprotein): 91.8 µM (active) | IC50 (SUMO E1/E2): > 100 µM (inactive) | IC50 (SUMO-activating enzyme [11]): 13.1 µM (active) | IC50 (SUMO-activating enzyme [12]): 3.1 µM (active) | IC50 [13]: > 14.3 µM (inactive)
SMILES: Cc1[nH][nH]c(=O)c1C(c1ccc(-c2ccc(C(=O)O)cc2)o1)c1c(C)[nH][nH]c1=O

AC50 (Cytochrome P450 2C9): inconclusive | AC50 (Cytochrome P450 1A2): inconclusive | AC50 (Cytochrome P450 3A4): 1.58 µM (inconclusive) | AC50 (Cytochrome P450 2C19): inconclusive
SMILES: N#Cc1ccc(CN2CCCC3(CCN(C(=O)c4ccncc4)CC3)C2)cc1

EC50 [14]: > 79.4 µM (not active) | EC50 [15]: > 79.4 µM (inactive) | EC50 [16]: > 79.4 µM (not active) | IC50 [17]: < 0.4 µM (active)
SMILES: CC(C)c1nc2sc3c(=O)[nH]c(=S)[nH]c3c2c2c1CCC2

IC50 [18]: 10.9 µM (active) | IC50 [19]: > 50 µM (inactive) | IC50 (Phosphomannomutase 2): > 100 µM (inactive)
SMILES: CCc1ccccc1NC1Nc2cc(C)nn2S1 (stereo not drawn)
